Results taken from patent US20210255193A1, “LYSINE REACTIVE PROBES AND USES THEREOF” (The Scripps Research Institute, priority 2017, published 2021).

How the values were obtained:
Experiment in all cases: competitive isoTOP-ABPP
Format in all cases: binding
Conditions in all cases: 100 uM_231_sol_in vitro
[1] = target: T1, KPNA2 Importin subunit alpha-2 (Homo sapiens, UniProt P52292)
T1 construct: isoTOP-ABPP experiments performed in cell lysates (in vitro); endogenous in cells; host or cells: soluble proteome of human cancer cell lines (MDA-MB-231, Ramos, Jurkat)
Summary of the method: (§1)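 Lysine engagement is reported as R, the MS1 peak-area ratio of heavy-tagged DMSO to light-tagged compound samples. Final fragment concentrations were 50 μM for activated esters and 100 μM for guanidinylating agents; STP-alkyne probe 0.1 mM, 1 h.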

[2] = target: T2, WARS Tryptophan--tRNA ligase, cytoplasmic (Homo sapiens, UniProt P23381)
T2 construct: isoTOP-ABPP experiments performed in cell lysates (in vitro); endogenous in cells; host or cells: soluble proteome of human cancer cell lines (MDA-MB-231; Ramos and Jurkat also prepared)
T2 sequence (P23381 1-471): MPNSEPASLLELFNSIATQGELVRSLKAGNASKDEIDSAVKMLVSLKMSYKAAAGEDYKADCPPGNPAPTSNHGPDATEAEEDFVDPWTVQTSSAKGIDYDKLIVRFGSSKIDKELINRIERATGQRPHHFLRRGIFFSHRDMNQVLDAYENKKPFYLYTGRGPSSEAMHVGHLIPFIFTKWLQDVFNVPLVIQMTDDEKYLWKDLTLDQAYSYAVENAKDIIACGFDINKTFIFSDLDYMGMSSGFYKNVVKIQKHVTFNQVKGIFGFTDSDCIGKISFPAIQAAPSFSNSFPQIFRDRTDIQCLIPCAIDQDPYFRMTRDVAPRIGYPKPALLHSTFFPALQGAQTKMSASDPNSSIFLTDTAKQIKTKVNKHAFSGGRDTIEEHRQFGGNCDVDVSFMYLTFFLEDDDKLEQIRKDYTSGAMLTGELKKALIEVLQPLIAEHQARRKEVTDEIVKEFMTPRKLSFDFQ
Summary of the method: as §1

[3] = target: T3, CNOT4 CCR4-NOT transcription complex subunit 4 (Homo sapiens, UniProt O95628)
T3 construct: isoTOP-ABPP experiments performed in cell lysates (in vitro); endogenous in cells; host or cells: MDA-MB-231 soluble lysate
T3 sequence (O95628 1-575): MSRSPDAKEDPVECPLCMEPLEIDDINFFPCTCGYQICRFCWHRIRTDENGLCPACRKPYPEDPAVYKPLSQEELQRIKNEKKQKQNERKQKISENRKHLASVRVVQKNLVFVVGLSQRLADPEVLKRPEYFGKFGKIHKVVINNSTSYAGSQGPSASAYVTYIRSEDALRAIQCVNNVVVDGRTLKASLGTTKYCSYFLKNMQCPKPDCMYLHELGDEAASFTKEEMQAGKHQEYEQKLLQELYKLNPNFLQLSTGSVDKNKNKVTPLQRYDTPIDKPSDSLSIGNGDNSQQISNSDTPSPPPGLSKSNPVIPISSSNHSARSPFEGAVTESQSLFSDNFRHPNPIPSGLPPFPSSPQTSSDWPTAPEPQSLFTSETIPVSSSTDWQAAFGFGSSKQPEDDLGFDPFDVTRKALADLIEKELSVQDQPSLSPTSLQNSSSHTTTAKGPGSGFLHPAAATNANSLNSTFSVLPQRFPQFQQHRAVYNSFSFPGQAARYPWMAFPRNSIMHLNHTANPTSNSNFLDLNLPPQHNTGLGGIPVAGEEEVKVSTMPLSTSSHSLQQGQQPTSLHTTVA
Summary of the method: as §1

[4] = target: T4, POLR2L DNA-directed RNA polymerases I, II, and III subunit (Homo sapiens, UniProt P62875)
T4 construct: isoTOP-ABPP experiments performed in cell lysates (in vitro); endogenous in cells; host or cells: soluble proteome of human cancer cell lines (MDA-MB-231, Ramos, Jurkat)
Summary of the method: as §1

isoTOP-ABPP ratio, lysine P52292_K459 [1]: 1.6 | isoTOP-ABPP ratio, lysine P23381_K256 [2]: 1.1 | isoTOP-ABPP ratio, lysine O95628_K134 [3]: 1.7 | isoTOP-ABPP ratio, lysine P62875_K67 [4]: 1.0
Structure (SMILES): CC(C)(C)OC(=O)N=C(NC(=O)OC(C)(C)C)n1cccn1 [fragment 50, reference compound]
